In patent US20260317319A1, “NOVEL ERGOLINES AND METHODS OF TREATING MOOD DISORDERS” (Gilgamesh Pharma Inc., priority 2023, published 2026):
Like-named read-outs stand apart in the source and are kept apart here.

Legend:
[1] = target: T1, 5-HT2B receptor (Homo sapiens, UniProt P41595); assay: cell-based; format: cell-based; conditions: for Emax: HEK293, agonist, HEK293, max dose, read-out: 5-HT2B % Act @ Max Dose; for Emax / EC50: Ca2+ flux; for EC50: agonist, HEK293
T1 construct: expressed in transfected cells; host or cells: HEK293, stably transfected
Outline: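 FLIPR Tetra fluorescence read-out of calcium flux after compound addition. Receptor-expressing stable lines were used (HEK293 for 2A/2B; CHO with Gα15 for 1A), dye-loaded with Fluo-4 Direct and 2.5 mM final probenecid, 50 min at 37 °C.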

[2] = target: T2, 5-HT2C receptor (Homo sapiens, UniProt P28335); assay: cell-based; conditions: read-out: 5-HT2C % Act @ Max Dose
T2 sequence (P28335 33-458): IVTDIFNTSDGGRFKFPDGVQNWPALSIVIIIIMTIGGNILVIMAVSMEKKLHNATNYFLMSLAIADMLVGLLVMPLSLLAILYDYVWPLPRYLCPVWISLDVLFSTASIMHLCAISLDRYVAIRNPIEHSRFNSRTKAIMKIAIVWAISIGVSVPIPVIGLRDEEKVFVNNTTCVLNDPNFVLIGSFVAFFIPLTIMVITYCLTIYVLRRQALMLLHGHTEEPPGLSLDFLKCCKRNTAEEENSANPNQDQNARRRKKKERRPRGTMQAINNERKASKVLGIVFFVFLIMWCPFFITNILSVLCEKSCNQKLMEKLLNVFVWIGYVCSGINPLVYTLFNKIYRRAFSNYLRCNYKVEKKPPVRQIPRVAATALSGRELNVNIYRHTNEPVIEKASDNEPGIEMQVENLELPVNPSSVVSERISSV

[3] = target: T3, 5-HT1A receptor (Homo sapiens, UniProt P08908); assay: cell-based; conditions: agonist, Ca2+ flux; for Emax: CHO, CHO cells with Gα15, max dose, read-out: 5-HT1A % Act @ Max Dose; for EC50: CHO cells with Gα15
T3 construct: expressed in transfected cells; host or cells: CHO cells, stably transfected
T3 sequence (P08908 1-422): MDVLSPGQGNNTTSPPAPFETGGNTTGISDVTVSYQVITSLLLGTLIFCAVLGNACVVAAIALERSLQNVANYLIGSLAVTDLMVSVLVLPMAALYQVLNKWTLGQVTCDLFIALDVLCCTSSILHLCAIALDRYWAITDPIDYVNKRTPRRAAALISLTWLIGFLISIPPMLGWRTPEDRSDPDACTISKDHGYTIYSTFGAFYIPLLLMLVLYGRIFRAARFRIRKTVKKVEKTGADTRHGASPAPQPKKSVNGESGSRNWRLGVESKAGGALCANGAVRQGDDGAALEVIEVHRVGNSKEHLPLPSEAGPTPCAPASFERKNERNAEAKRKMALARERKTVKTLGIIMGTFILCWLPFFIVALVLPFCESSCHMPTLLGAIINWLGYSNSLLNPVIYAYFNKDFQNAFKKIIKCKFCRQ
Outline: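 Receptor agonism was assessed as intracellular calcium mobilization in stably transfected cells, with CHO cells additionally carrying Gα15 for the 5-HT1A readout. Calcium was monitored with Fluo-4 Direct dye.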

[4] = target: T4, 5-HT2A receptor (Homo sapiens, UniProt P28223); assay: cell-based; format: cell-based; conditions: beta-arrestin recruitment; for Emax: agonist, max dose, read-out: 5-HT2A Arrestin % Act @ Max Dose
Outline: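 PathHunter β-arrestin recruitment (enzyme fragment complementation): 5-HT2A fused to ProLink donor in cells co-expressing β-arrestin–β-galactosidase acceptor, seeded and held at 37° C before testing. Chemiluminescent read-out; agonist % activity = (sample RLU − vehicle)/(max control ligand − vehicle) × 100.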

[5] = system: C57BL/6 mice; assay: Mouse head twitch response (HTR) assay (observer-counted); format: in vivo; conditions: SC; for HTR at most efficacious dose (bound): 20 min
Experimental: Agonists of the 5-HT2A receptor are well known to induce this effect in rodents and the potency of this HTR is correlated with hallucinogenic potency in humans.
Animals. Adult male C57BL/6 mice, aged 6-8 weeks (body weight 20-25 g) were used in this experiment. Animals were housed under controlled temperatures and 12-hour light/dark cycles (lights on between 07:00-19:00 h), with ad libitum food and water. This study was carried out in strict accordance with the requirements of the Committee for the Purpose of Control and Supervision of Experiments on Animals (CPCSEA), India. All efforts were made to minimize suffering.
Procedure. Mice were administered one dose of the drug and immediately placed into a small open field for behavioral observation. Animals were observed continuously for 20 mins and the number of head twitches (HTs) were counted by an observer blind to the treatment condition.
Statistical Analysis. The data points shown are the mean±standard error of the mean (SEM). Analysis was performed using GraphPad Prism 6. Curves were fit using a non-linear gaussian distribution to calculate ED50 and Emax values.
Additional disclosed compounds were tested in the mouse head twitch response (HTR) assay according to the procedure described in Example 57 (administered SC). […] Lastly, compounds with much larger benzyl and phenethyl substituents on the amine nitrogen (e.g., 10 and 11) were low efficacy in this assay, consistent with their bias toward arrestin signaling (see Example 55).

[6] = in vitro; format: in vitro ADME, human; conditions: for microsomal CLint: read-out: Intrinsic clearance (Clint); for half-life: read-out: half-life (t1/2)
[7] = in vitro; format: in vitro ADME, mouse; conditions: for microsomal CLint: read-out: Intrinsic clearance (Clint); for half-life: read-out: half-life (t1/2)
Description: MLM Stability Pooled MLM from male CD-1 mice (BIOIVT M00501) were used.

[8] = in vitro; format: in vitro ADME, rat; conditions: for microsomal CLint: read-out: Intrinsic clearance (Clint); for half-life: read-out: half-life (t1/2)
Description: RLM Stability Pooled RLM from male Sprague-Dawley rats (Xenotech R1000) were used.

[9] = target: T4, 5-HT2A receptor; assay: cell-based; format: cell-based; parameters: expressed in transfected cells; host or cells: HEK293, stably transfected; conditions: Ca2+ flux; for Emax: HEK293, agonist, HEK293, max dose, read-out: 5-HT2A % Act @ Max Dose; for EC50: agonist, HEK293
Outline: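 FLIPR Ca2+ flux agonist assay using stably transfected HEK293 (5-HT2A, 5-HT2B) or CHO cells co-expressing Gα15 (5-HT1A). Cells loaded with Fluo-4 Direct plus 2.5 mM probenecid (final) for 50 min at 37 °C, then compound added and fluorescence read.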

[10] = target: T1, 5-HT2B receptor; assay: 5-HT2B receptor radioligand binding ([3H]LSD); conditions: read-out: 5-HT2B Receptor Ki
[11] = target: T4, 5-HT2A receptor; assay: biochemical; format: binding; parameters: expressed in transfected cells; host or cells: HEK293, stably transfected; conditions: [3H]ketanserin 1 nM; HEK293 stable cell line; 1 h, 25 °C
Outline: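 Affinity was measured in radioligand binding experiments using [^3H]ketanserin as the labelled ligand, following methods adapted from published procedures.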

[12] = agonist, Ca2+ flux, Eurofins DiscoverX protocol, max dose
[13] = human, microsomes, HLM 0.50 mg/mL, NADPH 1 mM, 1 μM compound, pH 7.4, 37° C., 60 min
[14] = mouse, microsomes, MLM (male CD-1) 0.50 mg/mL, NADPH 1 mM, 1 μM compound, pH 7.4, 37° C., 60 min
[15] = rat, microsomes, RLM (male Sprague-Dawley) 0.50 mg/mL, NADPH 1 mM, 1 μM compound, pH 7.4, 37° C., 60 min

T4 sequence (P28223 whole entry, the tested form may be a part): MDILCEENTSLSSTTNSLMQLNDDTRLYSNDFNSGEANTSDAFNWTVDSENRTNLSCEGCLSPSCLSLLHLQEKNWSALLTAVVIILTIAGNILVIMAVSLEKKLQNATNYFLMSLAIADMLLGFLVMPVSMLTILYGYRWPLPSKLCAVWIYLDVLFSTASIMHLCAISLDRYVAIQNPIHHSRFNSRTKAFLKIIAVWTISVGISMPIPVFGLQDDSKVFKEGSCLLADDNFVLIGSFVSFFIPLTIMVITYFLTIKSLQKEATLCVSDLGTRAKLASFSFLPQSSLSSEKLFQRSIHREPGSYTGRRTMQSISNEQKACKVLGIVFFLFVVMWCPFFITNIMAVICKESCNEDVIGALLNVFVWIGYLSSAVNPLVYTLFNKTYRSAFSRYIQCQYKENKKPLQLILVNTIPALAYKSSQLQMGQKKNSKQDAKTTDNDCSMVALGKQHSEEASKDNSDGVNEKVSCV
T1 sequence (P41595 whole entry): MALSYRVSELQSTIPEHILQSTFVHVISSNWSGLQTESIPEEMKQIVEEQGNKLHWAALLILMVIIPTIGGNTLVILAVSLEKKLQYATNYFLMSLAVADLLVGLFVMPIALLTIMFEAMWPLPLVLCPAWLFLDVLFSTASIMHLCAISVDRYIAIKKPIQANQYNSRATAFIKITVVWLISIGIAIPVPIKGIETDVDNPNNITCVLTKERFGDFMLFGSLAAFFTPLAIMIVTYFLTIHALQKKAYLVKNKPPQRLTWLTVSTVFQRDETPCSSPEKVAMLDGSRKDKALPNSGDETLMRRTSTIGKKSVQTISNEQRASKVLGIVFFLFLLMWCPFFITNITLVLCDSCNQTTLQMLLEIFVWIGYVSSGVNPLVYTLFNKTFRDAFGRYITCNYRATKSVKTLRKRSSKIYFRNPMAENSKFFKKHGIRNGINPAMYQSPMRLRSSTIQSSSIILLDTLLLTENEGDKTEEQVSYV

CC[C@@H](C)NC(=O)[C@@H]1C=C2c3cccc4[nH]cc(c34)C[C@H]2N(CC)C1 [Compound 5, (6aR,9R)—N—((R)-sec-butyl)-7-ethyl-4,6,6a,7,8,9-hexahydroindolo[4,3-fg]quinoline-9-carboxamide]
Emax [1]: 84.8% | Emax [2, 12]: 114% | Emax [3]: 108% | Emax [4]: 106% | 5-HT2A arrestin agonist class [4]: full agonists | HTR at most efficacious dose (bound) [5]: > 15 HTR | stability in HLM [6]: much lower stability (higher clearance) | stability in MLM [7]: much lower stability (higher clearance) | stability in RLM [8]: much lower stability (higher clearance) | Emax [9]: 103%

CCC[C@@H](C)NC(=O)[C@@H]1C=C2c3cccc4[nH]cc(c34)C[C@H]2N(CCC)C1 [Compound 7, (6aR,9R)—N—((R)-pentan-2-yl)-7-propyl-4,6,6a,7,8,9-hexahydroindolo[4,3-fg]quinoline-9-carboxamide]
Emax [1]: 94.8% | selectivity for 5-HT2A over 5-HT2B ([1]; functional, compared to closest N-methyl counterparts Int8, Int11, Int17): more selective for 5-HT2A over 5-HT2B | Emax [2, 12]: 115% | Emax [3]: 107% | Emax [4]: 110% | 5-HT2A arrestin agonist class [4]: full agonists | HTR at most efficacious dose (bound) [5]: > 15 HTR | stability in HLM [6]: much lower stability (higher clearance) | half-life (t1/2) ([6]; HLM 0.50 mg/mL, NADPH 1 mM, 1 μM compound, pH 7.4, 37° C., 60 min): 1.65 min | stability in MLM [7]: much lower stability (higher clearance) | half-life (t1/2) ([7]; MLM (male CD-1) 0.50 mg/mL, NADPH 1 mM, 1 μM compound, pH 7.4, 37° C., 60 min): 0.541 min | stability in RLM [8]: much lower stability (higher clearance) | half-life (t1/2) ([8]; RLM (male Sprague-Dawley) 0.50 mg/mL, NADPH 1 mM, 1 μM compound, pH 7.4, 37° C., 60 min): 1.612 min | Emax [9]: 94.5%

CCN(CC)C(=O)[C@@H]1C=C2c3cccc4[nH]cc(c34)C[C@H]2N(CC2CCCCC2)C1 [Compound 89, (6aR,9R)-7-(cyclohexylmethyl)-N,N-diethyl-4,6,6a,7,8,9-hexahydroindolo[4,3-fg]quinoline-9-carboxamide]
Ki [10]: 9.67 nM | Emax [1]: 11.5% | EC50 [1]: > 10000 nM | Emax [3]: 84.4% | EC50 [3]: > 100000 nM | microsomal CLint [6, 13]: 104 µL/min/mg | half-life [6, 13]: 13.3 min | microsomal CLint [7, 14]: 572 µL/min/mg | half-life [7, 14]: 2.4 min | microsomal CLint [8, 15]: 244 µL/min/mg | half-life [8, 15]: 5.7 min | Ki [11]: 1.67 nM | Emax [9]: 51.8% | EC50 [9]: 839 nM

CCN(CC)C(=O)[C@@H]1C=C2c3cccc4[nH]cc(c34)C[C@H]2N(CC2CCCC2)C1 [Compound 90, (6aR,9R)-7-(cyclopentylmethyl)-N,N-diethyl-4,6,6a,7,8,9-hexahydroindolo[4,3-fg]quinoline-9-carboxamide]
Ki [10]: 2.08 nM | Emax [1]: 12% | EC50 [1]: > 10000 nM | Emax [3]: 76.8% | EC50 [3]: 42600 nM | microsomal CLint [6, 13]: 140 µL/min/mg | half-life [6, 13]: 9.9 min | microsomal CLint [7, 14]: 649 µL/min/mg | half-life [7, 14]: 2.1 min | microsomal CLint [8, 15]: 370 µL/min/mg | half-life [8, 15]: 3.7 min | Ki [11]: 2.35 nM | Emax [9]: 55.8% | EC50 [9]: 642 nM

CCC(CC)NC(=O)[C@@H]1C=C2c3cccc4[nH]cc(c34)C[C@H]2N(C)C1 [Int14]
Emax [1]: 9.84% | Emax [2]: 99.1% | Emax [3]: 102% | Emax [4]: 44.4% | 5-HT2A arrestin agonist class [4]: partial agonists | HTR at most efficacious dose (bound) [5]: < 15 HTR | half-life (t1/2) ([6]; human, microsomes, pH 7.4): 17.593 min | half-life (t1/2) ([7]; mouse, microsomes, pH 7.4): 6.07 min | half-life (t1/2) ([8]; rat, microsomes, pH 7.4): 37.988 min | Emax [9]: 93.3%

CCC[C@@H](C)NC(=O)[C@@H]1C=C2c3cccc4[nH]cc(c34)C[C@H]2N(C)C1 [Int17]
Emax [1]: 25.5% | Emax [2]: 102% | Emax [3]: 113% | Emax [4]: 38.8% | 5-HT2A arrestin agonist class [4]: partial agonists | HTR at most efficacious dose (bound) [5]: < 15 HTR | # HTR/20 min at Most Efficacious Dose ([5]; most efficacious dose 0.32 mg/kg): 6.0 HTR/20 min | half-life (t1/2) ([6]; human, microsomes, pH 7.4): 15.865 min | half-life (t1/2) ([7]; mouse, microsomes, pH 7.4): 8.252 min | half-life (t1/2) ([8]; rat, microsomes, pH 7.4): 27.894 min | Emax [9]: 91.5%
